Assays:
Test in all cases: Pre-emergent herbicidal activity (Table A)
Type in all cases: in vivo
[1] = tested on: Quackgrass; details: pre-emergence, Rhqg, 11.2 kg/ha, 10-14 days, read-out: herbicidal rating (% inhibition)
Method: (§1) The herbicidal ratings used in Tables A and B were assigned according to a scale based on the percent inhibition of each plant species. The herbicide rating symbols in Tables A and B are defined as follows: […]
(§2) One set of pre-emergent tests was conducted as follows:
(§3) Topsoil was placed in a pan and compacted to a depth of 0.95 to 1.27 cm. from the top of the pan. A predetermined number of seeds of each of several monocotyledonous and dicotyledonous annual plant species and/or vegetative propagules of various perennial plant species were placed on top of the soil. The soil required to level fill a pan after seeding or adding vegetative propagules was weighed into another pan. A known amount of the test compound dissolved or suspended in an organic solvent or water and applied in acetone or water as a carrier was thoroughly mixed with this cover soil, and the herbicide/soil mixture was used as a cover layer for the previously prepared pan.
(§4) The plant species usually regarded as weeds which were utilized in one set of pre-emergent activity tests, the data for which are shown in Table A, are identified by letter headings printed diagonally above the columns according to the following legend: […]

[2] = tested on: Canada thistle; details: Cirsium arvense, pre-emergence, Cath, 11.2 kg/ha, 10-14 days, read-out: herbicidal rating (% inhibition)
Method: as §1, §2, §3, §4

[3] = tested on: Rhizome Johnsongrass; details: Sorghum halepense, pre-emergence, Rhjg, 11.2 kg/ha, 10-14 days, read-out: herbicidal rating (% inhibition)
Method: as §1, §2, §3, §4

[4] = tested on: Velvetleaf; details: Abutilon theophrasti, pre-emergence, Vele, 11.2 kg/ha, 10-14 days, read-out: herbicidal rating (% inhibition)
Method: as §1, §2, §3, §4

[5] = tested on: Common Lambsquarters; details: Chenopodium album, pre-emergence, Colq, 11.2 kg/ha, 10-14 days, read-out: herbicidal rating (% inhibition)
Method: as §1, §2, §3, §4

[6] = tested on: Cocklebur; details: Xanthium strumarium, pre-emergence, Cobu, 11.2 kg/ha, 10-14 days, read-out: herbicidal rating (% inhibition)
Method: as §1, §2, §3, §4

[7] = tested on: Downy Brome; details: Bromus tectorum, pre-emergence, Dobr, 11.2 kg/ha, 10-14 days, read-out: herbicidal rating (% inhibition)
Method: as §1, §2, §3, §4

[8] = tested on: Morningglory; details: Ipomoea, pre-emergence, Mogl, 11.2 kg/ha, 10-14 days, read-out: herbicidal rating (% inhibition)
Method: as §1, §2, §3, §4

[9] = tested on: Barnyardgrass; details: Echinochloa crus-galli, pre-emergence, Bygr, 11.2 kg/ha, 10-14 days, read-out: herbicidal rating (% inhibition)
Method: as §1, §2, §3, §4

[10] = tested on: Pennsylvania Smartweed; details: pre-emergence, Pesw, 11.2 kg/ha, 10-14 days, read-out: herbicidal rating (% inhibition)
Method: as §1, §2, §3, §4

[11] = tested on: Yellow Nutsedge; details: Cyperus, pre-emergence, Yens, 11.2 kg/ha, 10-14 days, read-out: herbicidal rating (% inhibition)
Method: as §1, §2, §3, §4

SMILES	inhibition at 11200 g/ha [1] [%]	inhibition at 11200 g/ha [2] [%]	inhibition at 11200 g/ha [3] [%]	inhibition at 11200 g/ha [4] [%]	inhibition at 11200 g/ha [5] [%]	inhibition at 11200 g/ha [6] [%]	inhibition at 11200 g/ha [7] [%]	inhibition at 11200 g/ha [8] [%]	inhibition at 11200 g/ha [9] [%]	inhibition at 11200 g/ha [10] [%]	inhibition at 11200 g/ha [11] [%]
CN=C(SC)c1c(C(F)(F)F)nc(OC)c(C(=O)OC)c1CC(C)C [Compound 41, 3-pyridinecarboxylic acid, 2-methoxy-5-[(methylimino)(methylthio)methyl]-4-(2-methylpropyl)-6-(trifluoromethyl)-, methyl ester]	75 to 100	75 to 100	0 to 24	75 to 100	75 to 100	25 to 49	75 to 100	75 to 100	75 to 100	75 to 100	0 to 24
COC(=O)c1c(OC)nc(C(F)(F)F)c(N)c1CC(C)C [Compound 36, 3-pyridinecarboxylic acid, 5-amino-2-methoxy-4-(2-methylpropyl)-6-(trifluoromethyl)-, methyl ester]	75 to 100	25 to 49	75 to 100	50 to 74	75 to 100	0 to 24	75 to 100	50 to 74	75 to 100	75 to 100	0 to 24
COc1nc(C(F)(F)F)c(C(=O)SC)c(C2CCC2)c1C(=O)SC [Compound 65, 3,5 pyridinedicarbothioic acid, 4-cyclobuty1-2-methoxy-6-(trifluoromethyl)-, S,S-dimethyl ester]	50 to 74	75 to 100	0 to 24	75 to 100	75 to 100	25 to 49	75 to 100	75 to 100	75 to 100	75 to 100	25 to 49
CCOc1nc(C(F)(F)F)c(C(=O)OC)c(CC(C)C)c1C(=O)O [Compound 18, 3,5-pyridinedicarboxylic acid, 2-ethoxy-4-(2-methylpropyl)-6-(trifluoromethyl)-, 5-methyl ester]	0 to 24	0 to 24	0 to 24	0 to 24	50 to 74	25 to 49	–	0 to 24	0 to 24	0 to 24	0 to 24
CCOc1nc(C(F)(F)F)c(C(=O)OC)c(CC(C)C)c1C(=O)OC [Compound 6, 3,5-pyridinedicarboxylic acid, 2-ethoxy-4-(2-methylpropyl)-6-(trifluoromethyl)-, dimethyl ester]	75 to 100	75 to 100	75 to 100	75 to 100	75 to 100	25 to 49	–	75 to 100	75 to 100	75 to 100	25 to 49
CCOc1nc(C(F)(F)F)c(C(=O)OC)c(CC(C)C)c1C(=O)SC [Compound 8, 3-pyridinecarboxylic acid, 6-ethoxy-4-(2-methylpropyl)-5-[(methylthio)carbonyl]-2-(trifluoromethyl)-, methyl ester]	75 to 100	0 to 24	0 to 24	75 to 100	75 to 100	0 to 24	–	75 to 100	75 to 100	75 to 100	0 to 24

From patent publication US5391540A, “Substituted pyridine compounds” (Rohm and Haas Company, priority 1993, dated 1995)
